From ChEMBL document CHEMBL1201862, “PubChem BioAssay data set” (2004) come the findings set out here.

Activity calls are given as the source filed them.

The subject of one data set is Escherichia coli. Kind of data set: microbe, parasite or virus in culture.
For data set [1], the system named is HEK293. Nature of the data set: cells. The note with it: Homo sapiens.
Data set [2] relates to HEK293. Kind of data set: cells. The note with it: Homo sapiens. This is another data set of the same source.
The next data set has as its target T1, Exodeoxyribonuclease V (Escherichia coli (strain K12), UniProt P04993+P07648+P08394).
T1 sequence (P04993 whole entry): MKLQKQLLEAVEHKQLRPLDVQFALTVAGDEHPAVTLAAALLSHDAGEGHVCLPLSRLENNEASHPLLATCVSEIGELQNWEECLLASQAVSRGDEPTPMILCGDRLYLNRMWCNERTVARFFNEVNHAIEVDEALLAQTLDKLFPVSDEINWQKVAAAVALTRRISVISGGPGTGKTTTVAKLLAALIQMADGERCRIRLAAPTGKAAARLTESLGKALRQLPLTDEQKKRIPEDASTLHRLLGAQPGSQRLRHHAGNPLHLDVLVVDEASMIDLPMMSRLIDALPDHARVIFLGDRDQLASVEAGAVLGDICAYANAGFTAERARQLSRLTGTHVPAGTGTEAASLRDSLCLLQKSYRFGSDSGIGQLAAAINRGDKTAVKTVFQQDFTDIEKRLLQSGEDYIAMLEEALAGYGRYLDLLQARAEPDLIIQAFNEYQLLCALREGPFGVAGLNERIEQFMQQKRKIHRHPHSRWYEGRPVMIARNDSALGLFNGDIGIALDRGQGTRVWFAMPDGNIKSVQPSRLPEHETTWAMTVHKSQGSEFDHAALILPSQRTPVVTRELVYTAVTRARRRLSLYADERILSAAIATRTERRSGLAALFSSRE
T1 sequence (P07648 whole entry): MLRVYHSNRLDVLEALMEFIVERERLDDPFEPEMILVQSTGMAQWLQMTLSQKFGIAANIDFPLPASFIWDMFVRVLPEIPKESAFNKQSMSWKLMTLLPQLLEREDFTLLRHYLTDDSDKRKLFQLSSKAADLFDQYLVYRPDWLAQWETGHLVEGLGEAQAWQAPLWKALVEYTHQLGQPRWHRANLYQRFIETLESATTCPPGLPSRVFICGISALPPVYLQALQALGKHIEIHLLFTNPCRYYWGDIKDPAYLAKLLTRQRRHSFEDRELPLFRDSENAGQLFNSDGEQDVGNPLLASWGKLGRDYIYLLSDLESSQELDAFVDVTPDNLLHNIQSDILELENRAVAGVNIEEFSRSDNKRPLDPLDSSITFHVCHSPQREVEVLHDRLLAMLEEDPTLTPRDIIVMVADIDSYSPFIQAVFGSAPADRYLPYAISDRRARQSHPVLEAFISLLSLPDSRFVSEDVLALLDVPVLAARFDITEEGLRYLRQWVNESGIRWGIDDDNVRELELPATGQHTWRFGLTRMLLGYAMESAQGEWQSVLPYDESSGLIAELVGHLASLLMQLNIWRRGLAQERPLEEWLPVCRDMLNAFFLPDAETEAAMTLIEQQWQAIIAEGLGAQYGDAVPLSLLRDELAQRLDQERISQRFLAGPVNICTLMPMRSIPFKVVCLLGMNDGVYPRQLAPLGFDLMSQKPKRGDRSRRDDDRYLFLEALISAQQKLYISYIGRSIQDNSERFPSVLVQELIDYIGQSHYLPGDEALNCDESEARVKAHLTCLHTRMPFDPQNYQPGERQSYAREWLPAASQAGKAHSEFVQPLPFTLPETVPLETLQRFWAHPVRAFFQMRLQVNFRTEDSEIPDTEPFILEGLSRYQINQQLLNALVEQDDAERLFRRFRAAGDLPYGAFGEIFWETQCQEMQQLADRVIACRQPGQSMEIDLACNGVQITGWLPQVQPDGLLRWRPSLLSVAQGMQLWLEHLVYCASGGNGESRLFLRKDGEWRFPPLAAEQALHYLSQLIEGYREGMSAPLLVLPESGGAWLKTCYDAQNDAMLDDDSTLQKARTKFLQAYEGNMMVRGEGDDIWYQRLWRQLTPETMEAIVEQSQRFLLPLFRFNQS
T1 sequence (P08394 whole entry): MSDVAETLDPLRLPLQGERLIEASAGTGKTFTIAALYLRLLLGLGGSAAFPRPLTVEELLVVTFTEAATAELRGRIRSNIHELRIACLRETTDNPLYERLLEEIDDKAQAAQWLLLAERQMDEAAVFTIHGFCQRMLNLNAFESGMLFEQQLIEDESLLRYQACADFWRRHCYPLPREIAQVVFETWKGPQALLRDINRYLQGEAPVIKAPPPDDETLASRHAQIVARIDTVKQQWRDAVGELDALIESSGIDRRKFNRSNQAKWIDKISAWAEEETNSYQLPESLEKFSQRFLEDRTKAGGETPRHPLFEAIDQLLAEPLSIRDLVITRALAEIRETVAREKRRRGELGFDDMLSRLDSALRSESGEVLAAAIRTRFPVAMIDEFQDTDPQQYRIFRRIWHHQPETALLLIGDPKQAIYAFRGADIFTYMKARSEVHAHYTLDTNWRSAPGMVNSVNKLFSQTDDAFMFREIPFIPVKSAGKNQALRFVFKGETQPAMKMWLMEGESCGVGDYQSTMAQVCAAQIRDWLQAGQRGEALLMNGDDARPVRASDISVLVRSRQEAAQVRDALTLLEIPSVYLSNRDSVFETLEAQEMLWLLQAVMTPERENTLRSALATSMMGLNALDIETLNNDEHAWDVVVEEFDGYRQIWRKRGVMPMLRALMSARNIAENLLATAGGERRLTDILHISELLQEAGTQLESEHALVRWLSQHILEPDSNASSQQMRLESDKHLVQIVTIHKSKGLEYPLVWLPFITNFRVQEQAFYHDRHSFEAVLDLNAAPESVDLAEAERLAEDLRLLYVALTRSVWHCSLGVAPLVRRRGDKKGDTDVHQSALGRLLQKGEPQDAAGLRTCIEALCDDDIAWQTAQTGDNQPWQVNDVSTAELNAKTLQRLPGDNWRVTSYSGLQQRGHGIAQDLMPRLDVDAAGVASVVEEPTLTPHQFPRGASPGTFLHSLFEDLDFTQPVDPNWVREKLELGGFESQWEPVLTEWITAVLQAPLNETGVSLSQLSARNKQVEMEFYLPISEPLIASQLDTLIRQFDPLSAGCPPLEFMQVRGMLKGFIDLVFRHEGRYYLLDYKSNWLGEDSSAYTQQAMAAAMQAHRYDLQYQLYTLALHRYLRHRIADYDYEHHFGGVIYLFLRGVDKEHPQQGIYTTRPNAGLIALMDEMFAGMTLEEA
Nature of the data set: E. coli RecBCD inhibitors, dose response, counter-screen for AddAB inhibitor project, absorbance, V66 E. coli, mutant T4 phage (AID 492957). It is filed as functional, cell-based, Escherichia coli str. K-12 substr. MG1655.

Data set [3] in a line: Counterscreen for AddAB inhibitors: absorbance-based bacterial cell-based high throughput dose response assay for inhibitors of bacterial viability. [Related pubchem assays (depositor defined):AID435030, AID449728, AID449731, AID488942, AID488955, AID488956]. Format: functional.
The next data set has as its target Paired box protein Pax-8 (Homo sapiens, UniProt Q06710). Nature of the data set: inhibitors of PAX8-driven TPO luciferase reporter, dose response, RMG-I cells, cherry-pick (AID 687027).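 Further: luciferase reporter driven by Pax8 target thyroperoxidase promoter measured by SteadyGlo luminescence.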 It is filed as functional, cell-based.
The nature of data set [4]: A cytotoxicity screen of small molecule inhibitors of the PhoP region in Salmonella typhi identified in the primary screen. [Related pubchem assays: 1850, 1864, 1985 ]. Format: functional.
For data set [5], the target named is Disintegrin and metalloproteinase domain-containing protein 17 (Homo sapiens, UniProt P78536). Kind of data set: exosite inhibitors of ADAM17, dose response, biochemical (AID 743260).
In a further data set the test system is HeLa. Nature of the data set: HeLa cell cytotoxicity, dose response, cytotoxicity control for MITF activator project, CellTiter-Glo luminescence, cherry-pick samples (AID 540259). Format: functional, cell-based. The note with it: Homo sapiens.
In a further data set the target is Cytochrome P450 3A4 (Homo sapiens, UniProt P08684).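 Further: CYP3A4 tested as one member of a cytochrome P450 panel screen.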
The target of a further data set is Cytochrome P450 2C9 (Homo sapiens, UniProt P11712).
A further data set deals with T2, Cytochrome P450 1A2 (Homo sapiens, UniProt P05177).
T2 sequence (P05177 whole entry): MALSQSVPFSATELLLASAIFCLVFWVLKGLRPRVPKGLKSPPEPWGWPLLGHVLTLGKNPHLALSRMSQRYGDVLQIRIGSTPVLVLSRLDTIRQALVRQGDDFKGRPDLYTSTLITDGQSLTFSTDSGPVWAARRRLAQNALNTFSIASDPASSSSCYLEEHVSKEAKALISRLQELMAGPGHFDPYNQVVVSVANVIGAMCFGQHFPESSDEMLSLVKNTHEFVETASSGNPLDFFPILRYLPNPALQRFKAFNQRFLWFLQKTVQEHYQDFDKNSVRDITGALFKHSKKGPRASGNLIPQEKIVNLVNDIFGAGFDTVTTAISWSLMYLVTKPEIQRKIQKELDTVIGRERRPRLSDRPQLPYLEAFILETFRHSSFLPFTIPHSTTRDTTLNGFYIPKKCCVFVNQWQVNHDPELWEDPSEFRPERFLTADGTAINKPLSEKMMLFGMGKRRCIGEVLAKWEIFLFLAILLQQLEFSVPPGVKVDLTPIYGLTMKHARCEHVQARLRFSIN

A further data set deals with Cytochrome P450 2C19 (Homo sapiens, UniProt P33261). Nature of the data set: Cytochrome panel assay with activity outcomes. Panel member name: p450-cyp2c19 Compounds with AC50 equal or less than 10 uM are considered active. It is filed as functional.
Cytochrome P450 2C19, sequence (P33261 whole entry): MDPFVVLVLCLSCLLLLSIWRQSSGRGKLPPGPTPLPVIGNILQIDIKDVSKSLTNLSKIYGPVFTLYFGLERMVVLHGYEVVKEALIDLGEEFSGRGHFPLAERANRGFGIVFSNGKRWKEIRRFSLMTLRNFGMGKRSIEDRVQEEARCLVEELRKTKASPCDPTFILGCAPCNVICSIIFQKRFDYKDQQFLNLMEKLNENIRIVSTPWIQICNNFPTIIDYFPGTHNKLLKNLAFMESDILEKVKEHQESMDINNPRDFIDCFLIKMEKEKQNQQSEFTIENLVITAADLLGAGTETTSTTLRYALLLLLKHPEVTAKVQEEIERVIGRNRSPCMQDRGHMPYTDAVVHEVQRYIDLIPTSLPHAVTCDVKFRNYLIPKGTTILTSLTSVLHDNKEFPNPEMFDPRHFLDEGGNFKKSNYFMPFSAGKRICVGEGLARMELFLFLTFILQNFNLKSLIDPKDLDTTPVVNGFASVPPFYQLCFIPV

Cytochrome P450 3A4, sequence (P08684 whole entry): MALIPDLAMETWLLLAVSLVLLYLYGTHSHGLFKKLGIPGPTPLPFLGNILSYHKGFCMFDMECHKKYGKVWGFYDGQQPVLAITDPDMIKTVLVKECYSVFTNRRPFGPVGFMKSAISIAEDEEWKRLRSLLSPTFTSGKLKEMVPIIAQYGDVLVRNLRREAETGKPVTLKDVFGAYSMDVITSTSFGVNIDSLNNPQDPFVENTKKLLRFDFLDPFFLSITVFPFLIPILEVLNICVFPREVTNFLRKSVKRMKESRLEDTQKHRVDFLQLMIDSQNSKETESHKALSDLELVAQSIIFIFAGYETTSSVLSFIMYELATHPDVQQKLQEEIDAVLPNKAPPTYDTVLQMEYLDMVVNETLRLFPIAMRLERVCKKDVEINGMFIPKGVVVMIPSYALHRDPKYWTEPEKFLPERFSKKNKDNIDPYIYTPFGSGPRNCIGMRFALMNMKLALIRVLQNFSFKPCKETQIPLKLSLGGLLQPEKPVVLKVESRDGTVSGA
Paired box protein Pax-8, sequence (Q06710 whole entry): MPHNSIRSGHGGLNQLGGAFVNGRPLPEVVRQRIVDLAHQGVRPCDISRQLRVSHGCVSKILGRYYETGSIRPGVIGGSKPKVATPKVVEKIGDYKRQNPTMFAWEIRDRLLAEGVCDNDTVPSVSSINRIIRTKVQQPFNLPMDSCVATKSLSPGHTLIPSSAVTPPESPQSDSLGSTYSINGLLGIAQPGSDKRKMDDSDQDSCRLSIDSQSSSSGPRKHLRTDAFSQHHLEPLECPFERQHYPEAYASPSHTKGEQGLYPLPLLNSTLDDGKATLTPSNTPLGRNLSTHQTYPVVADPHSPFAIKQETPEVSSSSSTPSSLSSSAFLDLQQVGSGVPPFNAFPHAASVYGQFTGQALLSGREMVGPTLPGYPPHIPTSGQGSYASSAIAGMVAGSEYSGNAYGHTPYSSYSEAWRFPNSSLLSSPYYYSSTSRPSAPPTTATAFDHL
Disintegrin and metalloproteinase domain-containing protein 17, sequence (P78536 whole entry, the tested form may be a part): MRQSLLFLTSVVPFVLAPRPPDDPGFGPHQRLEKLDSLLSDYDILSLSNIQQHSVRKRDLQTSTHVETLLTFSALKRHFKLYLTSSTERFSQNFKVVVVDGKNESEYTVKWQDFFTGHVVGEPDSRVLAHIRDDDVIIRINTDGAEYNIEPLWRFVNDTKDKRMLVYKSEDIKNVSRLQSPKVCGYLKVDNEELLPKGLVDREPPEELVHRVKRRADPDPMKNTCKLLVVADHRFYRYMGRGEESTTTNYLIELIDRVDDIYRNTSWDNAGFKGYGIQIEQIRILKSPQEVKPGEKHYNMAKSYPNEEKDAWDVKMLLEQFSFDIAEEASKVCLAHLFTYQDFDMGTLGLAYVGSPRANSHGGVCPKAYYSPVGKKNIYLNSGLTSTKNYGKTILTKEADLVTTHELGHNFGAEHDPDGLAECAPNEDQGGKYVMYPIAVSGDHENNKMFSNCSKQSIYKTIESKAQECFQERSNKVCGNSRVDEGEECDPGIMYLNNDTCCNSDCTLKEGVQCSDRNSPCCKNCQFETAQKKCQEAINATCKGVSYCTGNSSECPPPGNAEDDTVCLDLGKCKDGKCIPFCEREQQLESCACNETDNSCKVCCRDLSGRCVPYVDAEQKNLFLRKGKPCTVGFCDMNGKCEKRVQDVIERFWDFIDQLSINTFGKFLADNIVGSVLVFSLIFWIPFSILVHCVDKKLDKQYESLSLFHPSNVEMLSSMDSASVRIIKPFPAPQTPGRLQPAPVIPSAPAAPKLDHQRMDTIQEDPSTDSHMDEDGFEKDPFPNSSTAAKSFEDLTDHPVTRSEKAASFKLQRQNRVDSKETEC
Cytochrome P450 2C9, sequence (P11712 whole entry): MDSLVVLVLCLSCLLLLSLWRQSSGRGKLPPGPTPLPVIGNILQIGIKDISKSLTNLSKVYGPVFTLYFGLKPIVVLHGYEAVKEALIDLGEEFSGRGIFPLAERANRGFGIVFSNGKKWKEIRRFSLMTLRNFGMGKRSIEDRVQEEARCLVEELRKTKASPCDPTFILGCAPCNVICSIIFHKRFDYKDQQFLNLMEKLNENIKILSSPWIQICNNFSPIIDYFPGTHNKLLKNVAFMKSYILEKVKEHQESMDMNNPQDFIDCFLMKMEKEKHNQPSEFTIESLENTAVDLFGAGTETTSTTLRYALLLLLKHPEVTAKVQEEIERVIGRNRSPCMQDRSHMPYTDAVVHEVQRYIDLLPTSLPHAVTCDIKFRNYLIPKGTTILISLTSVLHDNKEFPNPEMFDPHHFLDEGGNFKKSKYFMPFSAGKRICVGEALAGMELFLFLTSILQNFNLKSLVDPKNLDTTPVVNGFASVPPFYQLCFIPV

For orientation: AC50 means the concentration giving half of the maximal activity seen. On to `COc1ccc(N(CC(=O)NCc2ccc(Cl)cc2)S(=O)(=O)c2ccccc2[N+](=O)[O-])c(OC)c1`, for which the AC50 with Escherichia coli is 23.3 µM (active).

Broadly, the EC50 is the concentration at which the effect is half-maximal. Consider `CCOC(=O)c1c(CSc2ccccc2)n(C)c2cc(Br)c(O)c(CN(C)C)c12` [UMIFENOVIR], for which the EC50 in the data set on HEK293 [1] and in the data set on HEK293 [2] was > 59.7 µM (inactive) in each case.

As usually defined, the IC50 is the concentration at which inhibition is half-maximal. Turning to `CCCCCC(CC(=O)NO)C(=O)NC(C(=O)N1CCCC1CO)C(C)C` (centres undefined), the values for the IC50 (at Exodeoxyribonuclease V; in [3]; in data set [5]) were > 39.5 µM (inactive), 77.6 µM (inactive) and 3.59 µM (active), respectively. Besides, the AC50 at Paired box protein Pax-8 was 5.27 µM (active). Further, the EC50 in [4] is > 50 µM (active).

For `CCC(=O)NCCc1nc2cc(NC(=O)c3ccc(Cl)cc3)ccc2n1C`, in the data set on HeLa, the AC50 was 250 µM (active).

Take `O=C(CCc1nc2cccnc2n1Cc1ccccc1)N1CCOCC1`: in the data set on Escherichia coli, the AC50 was 28.4 µM (active). As for `Cc1ccc(S(=O)(=O)NCC2CCC(C(=O)O)CC2)cc1` (centres undefined), the values for the AC50 result at Cytochrome P450 3A4 and on Cytochrome P450 2C9 were “inconclusive” and 0.1 µM (inconclusive), respectively. For the compound `Cc1cc(C(=O)CN2C(=O)NC3(CCCCC3C)C2=O)c(C)n1Cc1cccs1` (centres undefined), in the data set with HeLa, the AC50 was > 350 µM (inactive). With `CCNc1ncc2nc(-c3ccc(Cl)cc3)c(=O)n(Cc3ccc(F)cc3)c2n1`, the AC50 was 12.6 µM (inconclusive) on Cytochrome P450 1A2, “inconclusive” at Cytochrome P450 2C19 and “inconclusive” on Cytochrome P450 3A4. As to `COc1ccccc1NC(=O)N1CCC(c2nnc(SCC(N)=O)n2C)CC1`, the half-maximal activity concentration (AC50) entry at Cytochrome P450 2C19 and on Cytochrome P450 3A4 was “inconclusive” each time.

With `Cc1ccc(C)c(N2CCN(c3ccc4cc(S(=O)(=O)N5CCCCC5)ccc4n3)CC2)c1`, in the data set with Escherichia coli, the AC50 was 27.6 µM (active). On to `O=C(CNc1cccc(F)c1)N1CCc2ccccc2C1`, for which the AC50 with HeLa was 157 µM (active). Turning to `FC(F)Oc1ccc(NC(S)=NCc2nc3ccccc3[nH]2)cc1`, the IC50 (at Exodeoxyribonuclease V; in [3]) was > 119 µM (inactive) in each case. Turning to `Cc1ccc(NC(=O)CSCC(=O)Nc2ccccc2N2CCCCC2)cc1`, the EC50 in the data set on HEK293 [1] and in the data set on HEK293 [2] was > 59.6 µM (inactive) throughout.
